# Assay results as given in patent US9051290B2, “Biaryl phosphodiesterase inhibitors” (LEO PHARMA A/S, priority 2010, dated 2015).
# Biological target: Human recombinant PDE4 (Genbank accession no NM—006203) (Homo sapiens, UniProt Q08499)
# Experiment: PDE4 assay (SPA, cleavage of cAMP)
# Type: biochemical
# Details: 1 hour incubation, test compound up to 10 μM, cAMP 1×10^−5M, read-out: PDE4 IC50 range
# Method in brief: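 Human recombinant PDE4 incubated 1 hour with compound (up to 10 μM), 1×10^−5M cAMP and radiolabelled cAMP tracer. AMP product detected by SPA bead binding; IC50 taken as concentration giving 50% inhibition of substrate cleavage versus controls, reported as ranges.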
# Sequence of Human recombinant PDE4 (Genbank accession no NM—006203) (Q08499 1-673 isoform Q08499-2): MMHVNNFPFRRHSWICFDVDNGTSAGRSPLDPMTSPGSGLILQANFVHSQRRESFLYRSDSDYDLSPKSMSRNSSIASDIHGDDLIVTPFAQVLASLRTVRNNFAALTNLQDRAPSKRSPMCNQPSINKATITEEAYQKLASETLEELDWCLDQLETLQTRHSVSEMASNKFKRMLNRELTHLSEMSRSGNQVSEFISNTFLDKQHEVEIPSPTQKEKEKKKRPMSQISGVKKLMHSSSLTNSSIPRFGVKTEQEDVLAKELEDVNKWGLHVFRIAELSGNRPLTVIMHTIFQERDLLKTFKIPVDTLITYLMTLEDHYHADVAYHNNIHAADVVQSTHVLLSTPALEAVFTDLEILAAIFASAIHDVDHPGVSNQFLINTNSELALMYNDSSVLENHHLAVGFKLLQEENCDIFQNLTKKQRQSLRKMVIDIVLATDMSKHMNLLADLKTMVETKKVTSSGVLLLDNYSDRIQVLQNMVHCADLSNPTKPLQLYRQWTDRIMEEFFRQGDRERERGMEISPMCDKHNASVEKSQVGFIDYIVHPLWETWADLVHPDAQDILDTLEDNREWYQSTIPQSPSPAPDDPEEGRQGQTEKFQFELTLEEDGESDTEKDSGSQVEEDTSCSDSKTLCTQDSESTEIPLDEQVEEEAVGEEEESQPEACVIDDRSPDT
row,SMILES,IC50 [nM]
1,"COc1ccc(-c2ccc3c(c2)COC3=O)c(OCCC(C)(C)C)c1OC [Compound 135, 5-[2-(3,3-Dimethyl-butoxy)-3,4-dimethoxy-phenyl]-3H-isobenzofuran-1-one]",< 100
2,"COC(=O)C(C)(C)COc1c(-c2cccc3c2CCC3=O)ccc(OC)c1OC [Compound 162, 3-[2,3-Dimethoxy-6-(1-oxo-indan-4-yl)-phenoxy]-2,2-dimethyl-propionic acid methyl ester]",< 100
3,"COc1ccc(-c2cccc3c2CCC3=O)c(OCc2cccc(S(=O)(=O)N(C)C)c2)c1OC [Compound 111, 3-[2,3-Dimethoxy-6-(1-oxo-indan-4-yl)-phenoxymethyl]-N,N-dimethyl-benzenesulfonamide]",< 100
4,"COc1ccc(-c2cccc3c2COC3=O)c(OCC(C)C)c1OC [Compound 175, 4-(2-Isobutoxy-3,4-dimethoxy-phenyl)-3H-isobenzofuran-1-one]",< 100

# Continued, values first:
row,IC50 [nM],SMILES
1,< 100,"COc1ccc(-c2ccc3c(c2)COC3=O)c(OCc2ccc(C(N)=O)cc2)c1OC [Compound 136, 4-[2,3-Dimethoxy-6-(1-oxo-1,3-dihydro-isobenzofuran-5-yl)-phenoxymethyl]-benzamide]"
2,100 to 500,"CCCNC(=O)C(C)(C)COc1c(-c2ccc3c(c2)CCC3=O)ccc(OC)c1OC [Compound 209, 3-[2,3-Dimethoxy-6-(1-oxo-indan-5-yl)-phenoxy]-2,2-dimethyl-N-propyl-propionamide]"
3,≥ 500,"CCNC(=O)OCC1(COc2c(-c3ccc4c(c3)CNC4=O)ccc(OC)c2OC)COC1 [Compound 214, Ethyl-carbamic acid 3-[2,3-dimethoxy-6-(1-oxo-2,3-dihydro-1H-isoindol-5-yl)-phenoxymethyl]-oxetan-3-ylmethyl ester]"
